# In ChEMBL document CHEMBL3885881, “DrugMatrix”:
# Organism: Rattus norvegicus
# Assay: DrugMatrix - Regimen: Daily Repeat
# Format: toxicity, organism-based, Sprague-Dawley
# Design: regimen Daily Repeat, gender Male, age 6-8 weeks
# Details: in vivo, po, route oral GAVAGE, vehicle .5 % CMC; for ABSOLUTE BASOPHIL / ABSOLUTE EOSINOPHIL / ABSOLUTE LYMPHOCYTE / ABSOLUTE MONOCYTE / ABSOLUTE SEGMENTED NEUTROPHIL / BASOPHIL / EOSINOPHIL / ERYTHROCYTE COUNT / HEMATOCRIT / HEMOGLOBIN / LEUKOCYTE COUNT / LYMPHOCYTE / MEAN CORPUSCULAR HEMOGLOBIN / MEAN CORPUSCULAR HEMOGLOBIN CONCENTRATION / MEAN CORPUSCULAR VOLUME / MONOCYTE / NEUTROPHIL / NUCLEATED RED BLOOD CELLS / PLATELET COUNT: tissue Blood; for ALANINE AMINOTRANSFERASE / ALBUMIN / ALKALINE PHOSPHATASE / ASPARTATE AMINOTRANSFERASE / BLOOD UREA NITROGEN / CARBON DIOXIDE / CHLORIDE / CHOLESTEROL / CREATINE PHOSPHOKINASE / CREATININE / GLUCOSE / LACTATE DEHYDROGENASE / LIPASE / PHOSPHORUS / POTASSIUM / SODIUM / TOTAL BILIRUBIN / TOTAL PROTEIN / URIC ACID: tissue Plasma
# [1] = 0 mg/kg, 72 h, dose level Control, time 3 day
# [2] = 0 mg/kg, 120 h, dose level Control, time 5 day
# [3] = 40 mg/kg, 72 h, dose level Low, time 3 day
structure (smiles),measurement,setting,value
C[C@@](Cc1ccc(O)c(O)c1)(NN)C(=O)O.O [CARBIDOPA],ABSOLUTE BASOPHIL,[1],0 CELLS/uL
same,ABSOLUTE EOSINOPHIL,[1],222.83 CELLS/uL
same,ABSOLUTE LYMPHOCYTE,[1],14453 CELLS/uL
same,ABSOLUTE MONOCYTE,[1],0 CELLS/uL
same,ABSOLUTE SEGMENTED NEUTROPHIL,[1],1490.83 CELLS/uL
same,BASOPHIL,[1],0%
same,EOSINOPHIL,[1],1.33%
same,ERYTHROCYTE COUNT,[1],5.76 x10E6/uL
same,HEMATOCRIT,[1],36.52%
same,HEMOGLOBIN,[1],13.45 G/DL
same,LEUKOCYTE COUNT,[1],16.17 x10E3/uL
same,LYMPHOCYTE,[1],89.33%
same,MEAN CORPUSCULAR HEMOGLOBIN,[1],23.37 pg
same,MEAN CORPUSCULAR HEMOGLOBIN CONCENTRATION,[1],36.85 G/DL
same,MEAN CORPUSCULAR VOLUME,[1],63.47 fL
same,MONOCYTE,[1],0%
same,NEUTROPHIL,[1],9.33%
same,NUCLEATED RED BLOOD CELLS,[1],0 /100WBC
same,PLATELET COUNT,[1],1239.5 x10E3/uL
same,ALANINE AMINOTRANSFERASE,[1],43.83 u/L
same,ALBUMIN,[1],4.27 G/DL
same,ALKALINE PHOSPHATASE,[1],398.83 u/L
same,ASPARTATE AMINOTRANSFERASE,[1],81.17 u/L
same,BLOOD UREA NITROGEN,[1],17.67 mg/dL
same,CARBON DIOXIDE,[1],27.5 mmol/L
same,CHLORIDE,[1],99.17 MEQ/L
same,CHOLESTEROL,[1],74 mg/dL
same,CREATINE PHOSPHOKINASE,[1],331.5 u/L
same,CREATININE,[1],0.2 mg/dL
same,GLUCOSE,[1],171.33 mg/dL
same,LACTATE DEHYDROGENASE,[1],241.67 u/L
same,LIPASE,[1],9.5 u/L
same,PHOSPHORUS,[1],12.25 mg/dL
same,POTASSIUM,[1],6.33 MEQ/L
same,SODIUM,[1],141.28 MEQ/L
same,TOTAL BILIRUBIN,[1],0.15 mg/dL
same,TOTAL PROTEIN,[1],5.98 G/DL
same,URIC ACID,[1],1.63 mg/dL
same,ABSOLUTE BASOPHIL,[2],0 CELLS/uL
same,ABSOLUTE EOSINOPHIL,[2],148.67 CELLS/uL
same,ABSOLUTE LYMPHOCYTE,[2],16020.5 CELLS/uL
same,ABSOLUTE MONOCYTE,[2],29.17 CELLS/uL
same,ABSOLUTE SEGMENTED NEUTROPHIL,[2],1468.33 CELLS/uL
same,BASOPHIL,[2],0%
same,EOSINOPHIL,[2],1%
same,ERYTHROCYTE COUNT,[2],5.78 x10E6/uL
same,HEMATOCRIT,[2],35.77%
same,HEMOGLOBIN,[2],13.4 G/DL
same,LEUKOCYTE COUNT,[2],17.67 x10E3/uL
same,LYMPHOCYTE,[2],90.5%
same,MEAN CORPUSCULAR HEMOGLOBIN,[2],23.22 pg
same,MEAN CORPUSCULAR HEMOGLOBIN CONCENTRATION,[2],37.47 G/DL
same,MEAN CORPUSCULAR VOLUME,[2],61.92 fL
same,MONOCYTE,[2],0.17%
same,NEUTROPHIL,[2],8.33%
same,NUCLEATED RED BLOOD CELLS,[2],0.17 /100WBC
same,PLATELET COUNT,[2],1255.5 x10E3/uL
same,ALANINE AMINOTRANSFERASE,[2],46.5 u/L
same,ALBUMIN,[2],4.38 G/DL
same,ALKALINE PHOSPHATASE,[2],336 u/L
same,ASPARTATE AMINOTRANSFERASE,[2],76.5 u/L
same,BLOOD UREA NITROGEN,[2],20 mg/dL
same,CARBON DIOXIDE,[2],27.5 mmol/L
same,CHLORIDE,[2],101 MEQ/L
same,CHOLESTEROL,[2],71.33 mg/dL
same,CREATINE PHOSPHOKINASE,[2],231.83 u/L
same,CREATININE,[2],0.37 mg/dL
same,GLUCOSE,[2],168.83 mg/dL
same,LACTATE DEHYDROGENASE,[2],174 u/L
same,LIPASE,[2],8.67 u/L
same,PHOSPHORUS,[2],11.48 mg/dL
same,POTASSIUM,[2],6.82 MEQ/L
same,SODIUM,[2],143.8 MEQ/L
same,TOTAL BILIRUBIN,[2],0.2 mg/dL
same,TOTAL PROTEIN,[2],5.98 G/DL
same,URIC ACID,[2],1.83 mg/dL
same,ABSOLUTE BASOPHIL,[3],0 CELLS/uL
same,ABSOLUTE EOSINOPHIL,[3],143.67 CELLS/uL
same,ABSOLUTE LYMPHOCYTE,[3],13232.67 CELLS/uL
same,ABSOLUTE MONOCYTE,[3],0 CELLS/uL
same,ABSOLUTE SEGMENTED NEUTROPHIL,[3],1090.33 CELLS/uL
same,BASOPHIL,[3],0%
same,EOSINOPHIL,[3],1%
same,ERYTHROCYTE COUNT,[3],5.57 x10E6/uL
same,HEMATOCRIT,[3],35.7%
same,HEMOGLOBIN,[3],13.3 G/DL
same,LEUKOCYTE COUNT,[3],14.47 x10E3/uL
same,LYMPHOCYTE,[3],91.67%
same,MEAN CORPUSCULAR HEMOGLOBIN,[3],23.87 pg
same,MEAN CORPUSCULAR HEMOGLOBIN CONCENTRATION,[3],37.27 G/DL
same,MEAN CORPUSCULAR VOLUME,[3],64.03 fL
same,MONOCYTE,[3],0%
same,NEUTROPHIL,[3],7.33%
same,NUCLEATED RED BLOOD CELLS,[3],0 /100WBC
same,PLATELET COUNT,[3],1331.33 x10E3/uL
same,ALANINE AMINOTRANSFERASE,[3],40.33 u/L
same,ALBUMIN,[3],4.27 G/DL
same,ALKALINE PHOSPHATASE,[3],388.33 u/L
same,ASPARTATE AMINOTRANSFERASE,[3],77 u/L
same,BLOOD UREA NITROGEN,[3],14 mg/dL
same,CARBON DIOXIDE,[3],29 mmol/L
same,CHLORIDE,[3],100.67 MEQ/L
same,CHOLESTEROL,[3],72.33 mg/dL
same,CREATINE PHOSPHOKINASE,[3],210.67 u/L
same,CREATININE,[3],0.21 mg/dL
same,GLUCOSE,[3],156 mg/dL
same,LACTATE DEHYDROGENASE,[3],151.33 u/L
same,LIPASE,[3],8.33 u/L
same,PHOSPHORUS,[3],12.9 mg/dL
same,POTASSIUM,[3],6.71 MEQ/L
same,SODIUM,[3],144.3 MEQ/L
same,TOTAL BILIRUBIN,[3],0.23 mg/dL
same,TOTAL PROTEIN,[3],5.9 G/DL
same,URIC ACID,[3],1.83 mg/dL
